How the values were obtained:
Histone deacetylase 7 = Histone deacetylase 7 (Homo sapiens, UniProt Q8WUI4)
Description: Competitive inhibition of HDAC7 using KI-104 as substrate by fluorescence assay

PC-3 = assay: Antiproliferative activity against human PC3 cells after 96 hrs by celltiter 96 assay; type: functional, cell-based; settings: PC-3, 96 h
[1] = target: T1, Polyamine deacetylase HDAC10 (Homo sapiens, UniProt Q969S8)
T1 sequence (Q969S8 whole entry): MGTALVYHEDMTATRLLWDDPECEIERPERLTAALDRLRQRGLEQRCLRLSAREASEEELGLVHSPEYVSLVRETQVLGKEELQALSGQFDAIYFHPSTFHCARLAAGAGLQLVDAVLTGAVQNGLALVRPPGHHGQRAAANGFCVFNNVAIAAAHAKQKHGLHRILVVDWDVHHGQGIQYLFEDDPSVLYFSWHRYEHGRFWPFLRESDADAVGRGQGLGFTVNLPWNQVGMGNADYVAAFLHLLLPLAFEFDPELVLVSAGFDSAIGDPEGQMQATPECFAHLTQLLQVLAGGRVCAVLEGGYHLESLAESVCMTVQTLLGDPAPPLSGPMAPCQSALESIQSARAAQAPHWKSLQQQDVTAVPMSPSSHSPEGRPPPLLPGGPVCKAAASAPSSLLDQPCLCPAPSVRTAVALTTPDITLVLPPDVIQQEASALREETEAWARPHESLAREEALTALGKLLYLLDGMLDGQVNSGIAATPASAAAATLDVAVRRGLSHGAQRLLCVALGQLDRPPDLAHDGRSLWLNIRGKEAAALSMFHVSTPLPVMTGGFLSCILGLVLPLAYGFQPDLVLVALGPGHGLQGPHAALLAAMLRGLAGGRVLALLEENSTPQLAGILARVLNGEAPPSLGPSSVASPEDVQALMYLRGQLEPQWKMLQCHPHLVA
Description: Competitive inhibition of HDAC10 using KI-104 as substrate by fluorescence assay

Histone deacetylase 2 = Histone deacetylase 2 (Homo sapiens, UniProt Q92769)
Description: Competitive inhibition of HDAC2 using KI-104 as substrate by fluorescence assay

Histone deacetylase 5 = Histone deacetylase 5 (Homo sapiens, UniProt Q9UQL6)
Description: Competitive inhibition of HDAC5 using KI-104 as substrate by fluorescence assay

Histone deacetylase 8 = target: T2, Histone deacetylase 8 (Homo sapiens, UniProt Q9BY41)
T2 sequence (Q9BY41 whole entry): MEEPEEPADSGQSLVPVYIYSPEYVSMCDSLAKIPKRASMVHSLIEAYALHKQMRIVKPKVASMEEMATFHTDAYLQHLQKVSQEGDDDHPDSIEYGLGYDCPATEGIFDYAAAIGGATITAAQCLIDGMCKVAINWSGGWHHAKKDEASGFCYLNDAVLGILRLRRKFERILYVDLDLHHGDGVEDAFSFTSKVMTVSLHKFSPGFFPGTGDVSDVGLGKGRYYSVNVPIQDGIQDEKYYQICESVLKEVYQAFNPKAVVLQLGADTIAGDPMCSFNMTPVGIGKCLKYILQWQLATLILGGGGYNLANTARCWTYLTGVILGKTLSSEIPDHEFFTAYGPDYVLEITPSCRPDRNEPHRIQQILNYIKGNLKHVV
Description: Competitive inhibition of HDAC8 using KI-104 as substrate by fluorescence assay

A2780 = assay: Antiproliferative activity against human A2780 cells after 96 hrs by celltiter 96 assay; type: functional, cell-based; settings: A2780, 96 h
Histone deacetylase 1 [2] = target: T3, Histone deacetylase 1 (Homo sapiens, UniProt Q13547)
Description: Inhibition of full length recombinant HDAC1 using Fluor de Lys as substrate by fluorescence assay

COLO 205 = assay: Antiproliferative activity against human COLO205 cells after 96 hrs by celltiter 96 assay; type: functional, cell-based; settings: COLO 205, 96 h
Histone deacetylase 4 = Histone deacetylase 4 (Homo sapiens, UniProt P56524)
Description: Competitive inhibition of HDAC4 using KI-104 as substrate by fluorescence assay

Histone deacetylase 3 = Histone deacetylase 3 (Homo sapiens, UniProt O15379)
Description: Competitive inhibition of HDAC3 using KI-104 as substrate by fluorescence assay

[3] = target: T4, Protein deacetylase HDAC6 (Homo sapiens, UniProt Q9UBN7)
T4 sequence (Q9UBN7 whole entry): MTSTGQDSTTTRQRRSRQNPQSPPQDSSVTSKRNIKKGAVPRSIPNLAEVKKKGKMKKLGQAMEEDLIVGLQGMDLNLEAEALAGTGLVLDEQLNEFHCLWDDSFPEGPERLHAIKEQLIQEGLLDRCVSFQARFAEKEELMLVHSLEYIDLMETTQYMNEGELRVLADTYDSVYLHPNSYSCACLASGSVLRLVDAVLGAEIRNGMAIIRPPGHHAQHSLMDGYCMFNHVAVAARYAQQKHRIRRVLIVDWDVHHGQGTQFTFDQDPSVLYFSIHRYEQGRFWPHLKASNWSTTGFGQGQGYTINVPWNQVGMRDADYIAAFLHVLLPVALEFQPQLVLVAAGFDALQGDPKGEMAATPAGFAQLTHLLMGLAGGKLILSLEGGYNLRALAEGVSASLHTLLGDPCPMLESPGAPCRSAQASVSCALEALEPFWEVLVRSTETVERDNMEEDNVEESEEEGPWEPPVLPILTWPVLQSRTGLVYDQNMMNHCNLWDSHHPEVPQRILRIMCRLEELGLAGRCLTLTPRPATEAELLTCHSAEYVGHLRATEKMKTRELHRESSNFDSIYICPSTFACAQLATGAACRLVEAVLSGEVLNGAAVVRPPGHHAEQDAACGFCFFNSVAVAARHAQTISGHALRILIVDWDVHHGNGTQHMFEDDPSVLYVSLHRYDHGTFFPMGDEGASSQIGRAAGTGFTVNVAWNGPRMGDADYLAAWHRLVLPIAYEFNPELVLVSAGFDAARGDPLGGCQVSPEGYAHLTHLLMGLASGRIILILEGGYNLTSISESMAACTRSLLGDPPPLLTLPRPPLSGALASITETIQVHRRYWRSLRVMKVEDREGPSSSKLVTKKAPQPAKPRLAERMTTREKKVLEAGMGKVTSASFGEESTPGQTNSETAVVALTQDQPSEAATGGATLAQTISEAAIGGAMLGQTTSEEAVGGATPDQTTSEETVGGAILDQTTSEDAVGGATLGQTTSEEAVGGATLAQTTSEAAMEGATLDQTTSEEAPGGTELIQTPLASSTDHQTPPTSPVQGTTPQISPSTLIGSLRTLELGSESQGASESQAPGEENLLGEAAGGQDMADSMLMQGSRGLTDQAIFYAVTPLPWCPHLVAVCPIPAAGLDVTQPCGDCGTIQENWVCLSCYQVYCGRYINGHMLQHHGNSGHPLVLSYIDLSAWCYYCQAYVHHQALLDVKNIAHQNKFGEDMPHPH
Description: Competitive inhibition of HDAC6 using KI-104 as substrate by fluorescence assay

Histone deacetylase 1 [4] = target: T3, Histone deacetylase 1; remark: listed apart in the source
Description: Competitive inhibition of HDAC1 using KI-104 as substrate by fluorescence assay

Histone deacetylase 9 = Histone deacetylase 9 (Homo sapiens, UniProt Q9UKV0)
Description: Competitive inhibition of HDAC9 using KI-104 as substrate by fluorescence assay

Histone deacetylase 11 = target: T5, Histone deacetylase 11 (Homo sapiens, UniProt Q96DB2)
T5 sequence (Q96DB2 whole entry): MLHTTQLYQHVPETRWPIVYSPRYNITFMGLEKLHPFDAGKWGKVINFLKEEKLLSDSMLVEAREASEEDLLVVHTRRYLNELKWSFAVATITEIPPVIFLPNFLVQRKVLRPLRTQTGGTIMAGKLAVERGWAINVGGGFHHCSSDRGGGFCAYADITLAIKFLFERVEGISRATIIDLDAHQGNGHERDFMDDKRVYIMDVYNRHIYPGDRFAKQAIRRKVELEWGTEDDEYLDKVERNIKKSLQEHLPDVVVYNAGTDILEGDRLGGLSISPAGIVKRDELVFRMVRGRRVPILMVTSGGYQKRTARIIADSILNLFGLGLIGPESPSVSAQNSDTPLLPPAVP
Description: Competitive inhibition of HDAC11 using KI-104 as substrate by fluorescence assay

HCT-116 [5] = assay: Antiproliferative activity against human HCT116 cells after 96 hrs by celltiter 96 assay; type: functional, cell-based; settings: HCT-116, 96 h
[6] = Half life in human liver microsomes; type: ADME, Microsome
[7] = Apparent permeability from basolateral to apical side of human Caco2 cells; type: ADME, cell-based; settings: Caco-2
[8] = 1-Octanol-sodium phosphate buffer distribution coefficient, log D of the compound at pH 7.4; type: physicochemical
[9] = Half life in dog liver microsomes; type: ADME, Canis lupus familiaris, Microsome
[10] = Apparent permeability from apical to basolateral side of human Caco2 cells; type: ADME, cell-based; settings: Caco-2
[11] = (§1) Half life in mouse liver microsomes; type: ADME, Microsome; settings: liver microsomes
[12] = Half life in rat liver microsomes; type: ADME, Microsome
[13] = Kinetic solubility of the compound at pH 7 with […] DMSO; type: physicochemical; settings: buffer, read-out: Kinetic_solubility
Liver = assay: as §1; type: ADME, Microsome; settings: microsomes
HCT-116 [14] = assay: Antitumor activity against human HCT116 cells xenografted in athymic nu/nu Harlan mouse assessed as tumor growth inhibition at 200 mg/kg, po qd for 21 days measured on day 22; type: functional; settings: read-out: TGI
HCT-116 [15] = assay: Antitumor activity against human HCT116 cells xenografted in athymic nu/nu Harlan mouse assessed as tumor growth inhibition at 100 mg/kg, po qd for 21 days measured on day 22; type: functional; settings: read-out: TGI
Mus musculus [16] = assay: Toxicity in athymic nu/nu Harlan mouse xenografted with human HCT116 cells assessed as mouse survival at 50 mg/kg, po QD for 21 days measured on day 22; type: organism-based, HCT-116; design: dose 50 mg/kg, route oral; settings: in vivo, 504 h
HCT-116 [17] = assay: Antitumor activity against human HCT116 cells xenografted in athymic nu/nu Harlan mouse assessed as tumor growth inhibition at 50 mg/kg, po qd for 21 days measured on day 22; type: functional; settings: read-out: TGI
Mus musculus [18] = assay: Toxicity in athymic nu/nu Harlan mouse xenografted with human HCT116 cells assessed as mouse survival at 200 mg/kg, po QD for 21 days measured on day 22; type: organism-based, HCT-116; design: dose 200 mg/kg, route oral; settings: in vivo, 504 h
Mus musculus [19] = assay: Toxicity in athymic nu/nu Harlan mouse xenografted with human HCT116 cells assessed as mouse survival at 100 mg/kg, po QD for 21 days measured on day 22; type: organism-based, HCT-116; design: dose 100 mg/kg, route oral; settings: in vivo, 504 h
[20] = Oral bioavailability in Wistar rat at 10 mg/kg; type: ADME, organism-based; settings: in vivo
[21] = Toxicity in po dosed athymic nu/nu Harlan mouse with xenografted human HCT116 cells assessed as maximum tolerated administered qd for 21 days; type: organism-based, HCT-116; settings: in vivo

T3 sequence (Q13547 whole entry): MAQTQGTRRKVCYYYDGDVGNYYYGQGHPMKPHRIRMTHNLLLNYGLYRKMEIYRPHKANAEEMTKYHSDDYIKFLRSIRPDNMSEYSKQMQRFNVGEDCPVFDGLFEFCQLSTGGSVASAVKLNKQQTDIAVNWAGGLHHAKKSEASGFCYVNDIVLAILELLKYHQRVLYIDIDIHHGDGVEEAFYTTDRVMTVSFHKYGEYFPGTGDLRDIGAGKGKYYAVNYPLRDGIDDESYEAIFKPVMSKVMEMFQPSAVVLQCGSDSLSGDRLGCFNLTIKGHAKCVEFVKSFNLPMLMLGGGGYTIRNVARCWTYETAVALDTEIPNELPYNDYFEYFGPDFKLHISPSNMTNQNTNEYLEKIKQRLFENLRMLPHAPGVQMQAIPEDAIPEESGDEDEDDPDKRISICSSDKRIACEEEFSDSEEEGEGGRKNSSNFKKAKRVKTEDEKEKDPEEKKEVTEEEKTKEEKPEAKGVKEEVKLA
Chain of Histone deacetylase 4 (P56524 whole entry): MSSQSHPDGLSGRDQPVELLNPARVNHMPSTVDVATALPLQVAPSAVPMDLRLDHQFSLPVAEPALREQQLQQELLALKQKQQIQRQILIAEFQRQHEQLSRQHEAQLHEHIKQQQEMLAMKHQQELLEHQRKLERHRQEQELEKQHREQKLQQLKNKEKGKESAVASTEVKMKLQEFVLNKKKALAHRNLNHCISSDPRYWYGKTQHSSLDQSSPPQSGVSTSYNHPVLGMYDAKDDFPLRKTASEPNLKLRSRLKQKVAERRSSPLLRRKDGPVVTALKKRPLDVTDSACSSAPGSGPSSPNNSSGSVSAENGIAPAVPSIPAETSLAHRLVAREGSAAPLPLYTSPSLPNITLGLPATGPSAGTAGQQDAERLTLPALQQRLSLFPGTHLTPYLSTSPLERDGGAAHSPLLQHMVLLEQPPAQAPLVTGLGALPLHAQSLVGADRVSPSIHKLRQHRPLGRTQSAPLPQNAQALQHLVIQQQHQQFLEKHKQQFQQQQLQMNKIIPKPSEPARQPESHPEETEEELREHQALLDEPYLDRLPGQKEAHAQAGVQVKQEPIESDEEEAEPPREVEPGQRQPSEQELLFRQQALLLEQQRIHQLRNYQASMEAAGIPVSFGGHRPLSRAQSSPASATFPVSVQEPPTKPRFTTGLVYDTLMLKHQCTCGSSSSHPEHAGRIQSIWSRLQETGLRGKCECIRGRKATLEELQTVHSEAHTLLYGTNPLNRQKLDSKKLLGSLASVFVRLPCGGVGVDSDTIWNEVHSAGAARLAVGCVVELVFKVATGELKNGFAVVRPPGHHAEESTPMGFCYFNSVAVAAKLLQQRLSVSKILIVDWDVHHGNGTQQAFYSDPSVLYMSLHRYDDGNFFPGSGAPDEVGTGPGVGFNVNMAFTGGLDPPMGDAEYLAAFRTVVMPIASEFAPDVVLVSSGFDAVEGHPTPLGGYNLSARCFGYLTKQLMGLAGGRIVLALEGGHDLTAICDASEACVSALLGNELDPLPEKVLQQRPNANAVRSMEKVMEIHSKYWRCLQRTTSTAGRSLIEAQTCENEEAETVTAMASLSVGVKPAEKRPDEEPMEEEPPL
Chain of Histone deacetylase 5 (Q9UQL6 whole entry): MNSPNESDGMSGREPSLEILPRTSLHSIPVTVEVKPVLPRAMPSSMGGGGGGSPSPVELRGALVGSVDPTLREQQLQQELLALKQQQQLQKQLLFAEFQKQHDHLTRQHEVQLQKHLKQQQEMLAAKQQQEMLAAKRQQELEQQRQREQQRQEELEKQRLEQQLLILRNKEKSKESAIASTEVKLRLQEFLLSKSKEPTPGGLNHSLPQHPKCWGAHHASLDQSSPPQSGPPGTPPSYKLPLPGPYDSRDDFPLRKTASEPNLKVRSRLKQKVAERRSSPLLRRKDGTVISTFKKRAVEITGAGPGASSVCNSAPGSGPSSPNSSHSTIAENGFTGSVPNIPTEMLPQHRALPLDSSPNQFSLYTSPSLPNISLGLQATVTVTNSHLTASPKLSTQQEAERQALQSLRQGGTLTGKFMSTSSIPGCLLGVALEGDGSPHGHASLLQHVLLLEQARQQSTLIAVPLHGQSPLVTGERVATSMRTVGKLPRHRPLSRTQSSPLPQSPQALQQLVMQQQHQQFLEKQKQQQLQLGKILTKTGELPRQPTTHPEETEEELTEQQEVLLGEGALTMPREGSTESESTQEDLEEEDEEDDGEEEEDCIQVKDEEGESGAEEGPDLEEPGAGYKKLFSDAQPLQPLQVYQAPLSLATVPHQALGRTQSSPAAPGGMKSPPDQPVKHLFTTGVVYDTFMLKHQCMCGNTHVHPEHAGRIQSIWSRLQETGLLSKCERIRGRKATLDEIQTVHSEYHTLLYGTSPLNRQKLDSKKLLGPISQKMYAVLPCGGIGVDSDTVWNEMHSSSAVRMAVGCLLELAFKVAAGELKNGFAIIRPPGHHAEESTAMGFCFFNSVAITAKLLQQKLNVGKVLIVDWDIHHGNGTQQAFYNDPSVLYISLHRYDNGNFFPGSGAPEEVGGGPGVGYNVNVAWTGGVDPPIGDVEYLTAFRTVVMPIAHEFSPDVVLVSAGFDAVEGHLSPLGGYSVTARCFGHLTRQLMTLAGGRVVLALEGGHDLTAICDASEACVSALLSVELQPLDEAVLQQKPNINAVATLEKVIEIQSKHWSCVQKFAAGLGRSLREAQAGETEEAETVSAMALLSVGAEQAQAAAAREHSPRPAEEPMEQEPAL
Chain of Histone deacetylase 3 (O15379 whole entry): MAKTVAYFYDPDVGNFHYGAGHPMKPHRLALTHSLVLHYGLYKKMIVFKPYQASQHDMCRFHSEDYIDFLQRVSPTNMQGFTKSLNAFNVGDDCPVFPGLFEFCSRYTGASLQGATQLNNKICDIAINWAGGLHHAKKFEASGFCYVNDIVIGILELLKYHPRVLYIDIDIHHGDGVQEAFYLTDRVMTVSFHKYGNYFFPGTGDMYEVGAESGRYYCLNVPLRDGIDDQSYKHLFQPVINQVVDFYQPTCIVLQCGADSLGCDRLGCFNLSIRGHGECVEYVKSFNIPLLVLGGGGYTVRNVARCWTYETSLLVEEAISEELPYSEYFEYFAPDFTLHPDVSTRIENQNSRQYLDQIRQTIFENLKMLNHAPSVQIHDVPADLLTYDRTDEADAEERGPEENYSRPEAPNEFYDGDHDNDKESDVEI
Chain of Histone deacetylase 2 (Q92769 whole entry): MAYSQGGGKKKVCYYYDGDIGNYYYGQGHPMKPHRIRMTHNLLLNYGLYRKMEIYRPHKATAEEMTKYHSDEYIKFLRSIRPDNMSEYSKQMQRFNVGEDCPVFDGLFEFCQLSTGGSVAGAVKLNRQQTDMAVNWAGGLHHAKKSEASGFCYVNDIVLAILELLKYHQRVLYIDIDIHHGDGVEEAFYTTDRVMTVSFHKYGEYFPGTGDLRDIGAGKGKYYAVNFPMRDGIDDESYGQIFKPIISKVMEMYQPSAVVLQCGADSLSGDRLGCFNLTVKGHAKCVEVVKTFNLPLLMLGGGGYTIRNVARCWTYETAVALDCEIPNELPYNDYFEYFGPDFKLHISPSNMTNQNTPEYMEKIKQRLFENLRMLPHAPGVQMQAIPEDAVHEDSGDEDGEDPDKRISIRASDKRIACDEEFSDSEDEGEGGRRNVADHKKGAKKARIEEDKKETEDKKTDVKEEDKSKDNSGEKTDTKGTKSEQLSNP
Chain of Histone deacetylase 9 (Q9UKV0 whole entry): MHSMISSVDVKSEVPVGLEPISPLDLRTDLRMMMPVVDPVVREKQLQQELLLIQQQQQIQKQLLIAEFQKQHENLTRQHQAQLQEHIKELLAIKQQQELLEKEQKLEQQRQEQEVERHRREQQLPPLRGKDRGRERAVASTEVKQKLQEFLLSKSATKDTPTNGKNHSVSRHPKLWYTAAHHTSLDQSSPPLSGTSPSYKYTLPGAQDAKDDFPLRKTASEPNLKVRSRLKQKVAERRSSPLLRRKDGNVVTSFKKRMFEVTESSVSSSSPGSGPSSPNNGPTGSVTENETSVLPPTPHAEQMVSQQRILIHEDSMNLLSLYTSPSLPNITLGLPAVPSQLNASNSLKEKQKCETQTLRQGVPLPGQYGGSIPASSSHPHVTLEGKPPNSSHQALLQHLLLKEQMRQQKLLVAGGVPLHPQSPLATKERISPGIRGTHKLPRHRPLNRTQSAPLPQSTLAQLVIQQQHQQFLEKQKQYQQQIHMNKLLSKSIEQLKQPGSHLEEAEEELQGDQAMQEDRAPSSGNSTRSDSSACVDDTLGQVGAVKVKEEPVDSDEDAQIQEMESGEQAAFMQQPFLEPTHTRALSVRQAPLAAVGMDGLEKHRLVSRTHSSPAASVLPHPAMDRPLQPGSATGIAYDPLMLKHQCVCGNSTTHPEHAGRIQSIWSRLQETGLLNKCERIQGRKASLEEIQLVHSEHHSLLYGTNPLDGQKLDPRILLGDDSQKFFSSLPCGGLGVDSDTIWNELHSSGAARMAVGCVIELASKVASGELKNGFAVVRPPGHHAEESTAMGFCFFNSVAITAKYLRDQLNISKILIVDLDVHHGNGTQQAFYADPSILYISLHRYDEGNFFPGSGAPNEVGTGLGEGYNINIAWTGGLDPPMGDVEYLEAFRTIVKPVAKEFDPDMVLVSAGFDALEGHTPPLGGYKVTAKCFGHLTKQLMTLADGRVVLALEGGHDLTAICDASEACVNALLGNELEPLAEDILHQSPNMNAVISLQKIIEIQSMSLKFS

Structure (SMILES) | IC50 (PC-3) | Ki [1] | Ki (Histone deacetylase 2) | Ki (Histone deacetylase 5) | Ki (Histone deacetylase 8) | IC50 (A2780) | IC50 (Histone deacetylase 1 [2]) | IC50 (COLO 205) | Ki (Histone deacetylase 4) | Ki (Histone deacetylase 3) | Ki [3] | Ki (Histone deacetylase 1 [4]) | Ki (Histone deacetylase 9) | Ki (Histone deacetylase 11) | IC50 (HCT-116 [5]) | half-life [6] | Papp B→A [7] | half-life [9] | Papp A→B [10] | half-life [11] | further results
CCCCCCc1nc2cc(/C=C/C(=O)NO)ccc2n1CCNC(C)C | 170 nM | 29 nM | 18 nM | 6.6 nM | 57 nM | 200 nM | 36 nM | 170 nM | 6.6 nM | 15 nM | 348 nM | 20 nM | 16 nM | 14 nM | 210 nM | – | – | – | – | – | Ki (Histone deacetylase 7): 41 nM
O=C(/C=C/c1ccc2c(c1)nc(CCc1ccccc1)n2CCN1CCCC1)NO | – | – | – | – | 95 nM | – | – | 130 nM | 8.5 nM | 12 nM | 20 nM | – | – | – | 190 nM | ≥ 30 min | 27.7 ×10⁻⁶ cm/s | 18 min | 3.01 ×10⁻⁶ cm/s | 5 min | logD ([8]; octanol/water): 2.1; half-life [12]: 4.3 min; solubility kinetic [13]: > 200 µM
CN(C)CC(C)(C)Cn1c(CCc2ccccc2)nc2cc(/C=C/C(=O)NO)ccc21 | – | 23 nM | 39 nM | 16 nM | – | – | 42 nM | 110 nM | 10 nM | 11 nM | 23 nM | 15 nM | 21 nM | 16 nM | – | 60 min | – | – | – | – | t1/2 (Liver): 17 min
CCCCCCc1nc2cc(/C=C/C(=O)NO)ccc2n1CCNCC.Cl.Cl | – | – | – | – | – | – | – | – | – | – | – | – | – | – | – | 51 min | 10.5 ×10⁻⁶ cm/s | 48 min | 0.97 ×10⁻⁶ cm/s | 1.6 min | inhibition in vivo at 200 mg/kg (HCT-116 [14]): 41%; inhibition in vivo at 100 mg/kg (HCT-116 [15]): -7%; Activity (Mus musculus [16]): Non-toxic; inhibition in vivo at 50 mg/kg (HCT-116 [17]): -9%; Activity (Mus musculus [18]): Non-toxic; Activity (Mus musculus [19]): Non-toxic; half-life [12]: 1.1 min; solubility kinetic [13]: > 200 µM
Cl.O=C(/C=C/c1ccc2c(c1)nc(CCc1ccccc1)n2CCN1CCCC1)NO | – | – | – | – | – | – | – | – | – | – | – | – | – | – | – | 60 min | 27.7 ×10⁻⁶ cm/s | 18 min | 3.01 ×10⁻⁶ cm/s | 5 min | logD ([8]; 1-octanol/sodium phosphate buffer, read-out: logD): 2.1; half-life [12]: 4.3 min; solubility kinetic [13]: > 200 µM
O=C(/C=C/c1ccc2c(c1)nc(CCc1ccccc1)n2CCN1CCCCC1)NO | – | 23 nM | 39 nM | 18 nM | – | – | 23 nM | 87 nM | 8.7 nM | 11 nM | 27 nM | 12 nM | 24 nM | 14 nM | – | 90 min | – | – | – | – | t1/2 (Liver): 35 min
CCCCCCc1nc2cc(/C=C/C(=O)NO)ccc2n1CCNCC | 210 nM | 28 nM | 18 nM | 6.8 nM | 54 nM | 240 nM | 20 nM | 190 nM | 6.2 nM | 13 nM | 282 nM | 11 nM | 14 nM | 13 nM | 230 nM | – | – | – | – | – | bioavailability [20]: 1.4%; MTD at 504 h [21]: 200 mg/kg
CCCCCc1nc2cc(/C=C/C(=O)NO)ccc2n1CCNC(C)C | 120 nM | 19 nM | 14 nM | 5.6 nM | 94 nM | 230 nM | 30 nM | 280 nM | 3.6 nM | 10 nM | 227 nM | 10 nM | 4.4 nM | 4.2 nM | 260 nM | – | – | – | – | – | –
CCCCc1nc2cc(/C=C/C(=O)NO)ccc2n1CCNC(C)C | 230 nM | 34 nM | 33 nM | 11 nM | 78 nM | 380 nM | 42 nM | 470 nM | 11 nM | 27 nM | 225 nM | 26 nM | 30 nM | 18 nM | 340 nM | – | – | – | – | – | bioavailability [20]: 9%; MTD at 504 h [21]: 200 mg/kg
